# In Sander's compilation of Henry's law constants (doi:10.1016/j.chemosphere.2021.129858):
# Test: Henry solubility constant Hcp at 298.15 K (mol/(m3 Pa))
# Settings: reference: Schwardt et al. (2021)
row,SMILES,Henry solubility constant Hcp
1,ClC(Cl)=C(Cl)Cl [tetrachloroethene],0.00058
2,ClC=C(Cl)Cl [trichloroethene],0.001
3,"Cc1ccc(C)cc1 [1,4-dimethylbenzene]",0.001
4,C=CCl [chloroethene],0.00039
5,CCc1ccccc1 [ethylbenzene],0.0013
6,"ClCC(Cl)Cl [1,1,2-trichloroethane]",0.0073
7,"ClCC(Cl)(Cl)Cl [1,1,1,2-tetrachloroethane]",0.0045
8,"C=C(Cl)Cl [1,1-dichloroethene]",0.0004
9,Clc1ccccc1 [chlorobenzene],0.002
